Source: ChEMBL document CHEMBL5126657, “Cytotoxic Cyclodepsipeptides and Cyclopentane Derivatives from a Plant-Associated Fungus Fusarium sp” (J Nat Prod, 2022)
Where a SMILES comes first, the peptide text is derived from it. [ ]: non-standard residue; d: D form. ξ: configuration not given here. NMeF = CN[C@@H](Cc1ccccc1)C(=O)O; Hica(2S) = CC(C)C[C@H](O)C(=O)O; ξLac(3-iPr) = CC(C)CC(O)C(=O)O

Tests used:
Type in all cases: functional, cell-based
Huh-7 = test: Antiproliferative activity against human Huh-7 cells assessed as reduction in cell viability after 48 hr by CCK-8 assay; conditions: Huh-7, 48 h
[1] = Antiproliferative activity against rat MRMT-1 cells assessed as reduction in cell viability after 48 hr by CCK-8 assay; conditions: MRMT-1, 48 h
HepG2 = test: Antiproliferative activity against human HepG2 cells assessed as reduction in cell viability after 48 hr by CCK-8 assay; conditions: HepG2, 48 h

Row | Compound | IC50 (Huh-7) [µM] | IC50 [1] [µM] | IC50 (HepG2) [µM]
1 | CC(C)CC1OC(=O)[C@H](Cc2ccccc2)NC(=O)[C@H](Cc2ccccc2)NC(=O)[C@H](Cc2ccccc2)NC(=O)[C@H](Cc2ccccc2)NC(=O)[C@H](Cc2c[nH]c3ccccc23)NC1=O (stereo partly specified) (cyclo(FFFF[ξLac(3-iPr)]W)) | 30.3 | 17.3 | 15.4
2 | CCC(C)[C@H]1OC(=O)[C@H](C(C)C)N(C)C(=O)[C@@H](C(C)CC)OC(=O)[C@H](C(C)C)N(C)C(=O)[C@@H](C(C)CC)OC(=O)[C@H](C(C)C)N(C)C1=O (stereo partly specified) | 9.1 | 6.8 | 3.3
3 | CCCCC/C=C\CCC(=O)OC1=C(c2ccccc2)CCC1=O | > 50 | > 50 | > 50
4 | CC(=O)CC(O)Cc1cc2cc(O)cc(O)c2c(=O)o1 (stereo unspecified) | > 50 | > 50 | > 50
5 | CCCCC/C=C\CCC(=O)O[C@@H]1[C@](N)(C(=O)O)CC[C@]1(O)c1ccccc1 | > 50 | > 50 | > 50
6 | CCCCCCCC(=O)O[C@@H]1[C@](N)(C(=O)O)CC[C@]1(O)c1ccccc1 | > 50 | > 50 | > 50
7 | O=c1[nH]cc(F)c(=O)[nH]1 [FLUOROURACIL] | 30.3 | 25.7 | 36.1
8 | CC(C)(O)[C@H]1Cc2cc(C=O)ccc2O1 | > 50 | > 50 | > 50
9 | COC(=O)/C=C/c1c(CC=C(C)C)ncn1C | > 50 | > 50 | > 50
10 | CC(C)C[C@@H]1OC(=O)[C@H](Cc2ccccc2)N(C)C(=O)[C@@H]2CCCN2C(=O)[C@H](C(C)C)NC(=O)[C@H](Cc2ccccc2)NC(=O)[C@@H]2CCCN2C(=O)[C@@H]2CCCN2C1=O (cyclo(FVP[NMeF][Hica(2S)]PP)) | > 50 | > 50 | 20.1
11 | CC(C)[C@H]1OC(=O)[C@H](Cc2ccccc2)N(C)C(=O)[C@@H](C(C)C)OC(=O)[C@H](Cc2ccccc2)N(C)C(=O)[C@@H](C(C)C)OC(=O)[C@H](Cc2ccccc2)N(C)C1=O | 4.3 | 8.7 | 1
12 | CCC(C)[C@H]1OC(=O)[C@H](C(C)C)N(C)C(=O)[C@@H](C(C)CC)OC(=O)[C@H](CC(C)C)N(C)C(=O)[C@@H](C(C)CC)OC(=O)[C@H](C(C)C)N(C)C1=O (stereo partly specified) | 3.3 | 2.8 | 1.4
13 | CCCCCCCC(=O)OC1=C(c2ccccc2)CCC1=O | > 50 | > 50 | > 50
14 | CC(C)CC1OC(=O)[C@H](Cc2ccccc2)NC(=O)[C@H](Cc2ccccc2)NC(=O)[C@H](Cc2ccccc2)NC(=O)[C@H](Cc2ccc(O)cc2)NC1=O (stereo partly specified) (cyclo(FFF[ξLac(3-iPr)]Y)) | 46.2 | > 50 | 10.7
15 | CN1C(=O)[C@@](C)(O)C(=O)[C@@H]1Cc1ccc2c(c1)CC(C(C)(C)O)O2 (stereo partly specified) [RIGIDIUSCULAMIDE C] | > 50 | > 50 | > 50
16 | CCC(C)C1NC(=O)C(CC(C)C)NC(=O)C(C(C)CC)NC(=O)C(CC(C)C)NC(=O)C(CC(C)C)NC1=O (stereo unspecified) (cyclo(ILILL); configuration not given here) | > 50 | > 50 | 14.1
17 | CC[C@H](C)[C@H]1OC(=O)[C@H](C(C)C)N(C)C(=O)[C@@H](C(C)C)OC(=O)[C@H](C(C)C)N(C)C(=O)[C@@H]([C@@H](C)CC)OC(=O)[C@H](C(C)C)N(C)C1=O | 6.2 | 2.7 | 2.8
